Results taken from patent US20230048888A1, “USE OF TRIAZOLOTRIAZINE DERIVATIVE IN TREATMENT OF DISEASES” (ZHEJIANG VIMGREEN PHARMACEUTICALS, LTD., priority 2019, published 2023).

System: haloperidol-induced stiffness
Test: Haloperidol-induced Wistar rat stiffness model (bar test, rearing)
Type: in vivo, Wistar rats
Settings: 10 mg/kg intragastric
Description: Time of bar test: The stiffness of the rats was tested by the bar test. That is, a wooden bar with a diameter of 8 mm was fixed between 2 iron stands and was 10 cm from the bench top; and then, the rat's tail was grabbed to make its front paws rest on the wooden bar and its hind paws or buttocks on the ground. Generally, the rat needs to acclimate several times when it was tested for the first time. The time for the forelimbs to drop from the bar or the time for the hind limbs to leave the bench top were tested, each rat was tested 3 times. Number of standings: the number of standings of the rat was measured by the rearing test. That is, the rat was placed in a 27*52 cm cage and acclimate for 5 minutes, and the spontaneous activity behavior, i.e., the number of standings, of the rat within 10 minutes was recorded. When the rat's hind limbs stood with two forelimbs raised over the shoulders and touched the ground, one standing is counted, and the one forelimb lift was excluded. Generally, the rat would raise its forelimbs to touch the cage wall. If the rat raised its forelimbs over the shoulders several times without falling to the ground, only one standing was counted. The time of bar test was taken as a measurement index, including the average time and the maximum time. Long time indicates severe stiffness, short time indicates mild stiffness. After drug treatment, the shorter the time of bar test, the better the effect of the drug on relieving stiffness. The number of standings was counted by the rearing test. The more the number of standings, the more frequent the spontaneous exploration activity of the rat, and the lower the stiffness. The statistical analysis between groups was performed on the data by using Prism GraphPad 7.0 independent sample T test, and P<0.05 was considered as a significant difference.

CCn1c(=O)c2c(nc(/C=C/c3ccc(OC)c(OC)c3)n2C)n(CC)c1=O [Istradefylline, reference compound]
Average on-bar time: 10.33 ± 1.58 s
Maximum on-bar time: 15.38 ± 2.75 s
Number of standings (1st hour after haloperidol): 23.25 ± 2.86
